Assays:
[1] = target: T1, RARγ (Mus musculus, UniProt P18911); assay: Transactivation assay (RARE-CAT reporter, CV-1 cells), RARγ; type: cell-based; settings: 50% of maximal activity obtained with 10^−6 M all-trans-RA
T1 construct: expressed in transfected cells; host or cells: CV-1 cells
T1 sequence (P18911 1-458): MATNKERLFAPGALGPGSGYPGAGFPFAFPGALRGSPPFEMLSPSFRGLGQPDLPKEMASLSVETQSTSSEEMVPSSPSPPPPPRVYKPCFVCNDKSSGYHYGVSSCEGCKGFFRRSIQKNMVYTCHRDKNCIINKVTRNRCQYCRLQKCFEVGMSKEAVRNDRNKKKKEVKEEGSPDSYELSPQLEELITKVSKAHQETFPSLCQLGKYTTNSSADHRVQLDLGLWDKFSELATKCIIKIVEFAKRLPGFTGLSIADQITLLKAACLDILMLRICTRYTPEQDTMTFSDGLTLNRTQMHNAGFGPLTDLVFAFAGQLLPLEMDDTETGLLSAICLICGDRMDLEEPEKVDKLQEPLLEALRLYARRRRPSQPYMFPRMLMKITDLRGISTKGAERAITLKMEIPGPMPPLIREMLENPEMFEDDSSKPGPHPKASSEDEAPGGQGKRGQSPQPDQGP
Experimental: Briefly, CV-1 cells were cotransfected with 4 μg RAR subtype (RARα, RARβ or RARγ) expression vector construct in pSG5, 4 μg RARE-CAT reporter DNA and 1 μg pCMV-β-gal DNA. Twenty-four hours following transfection, the cells were treated with various concentrations of each RAMBA ranging from 10^−11–10^−5 M along with an ethanol carrier control. Additional cells were treated with 10^−6 M all-trans-RA for normalisation. Twenty-four hours later, the cells were harvested and CAT and β-gal activities were assayed.

[2] = tested on: ER-α; assay: Western immunoblotting for ER-α in MCF-7 cells; type: cell-based, human; settings: 1–10 μM, 6 days, dose-dependent
Experimental: At the end of the treatment, cells were scrapped and collected by washing with ice-cold PBS in a centrifuge tube. Cells were centrifuged at 2500 r.p.m. for 10 min, the pellet was again washed with ice-cold PBS and centrifuged. The cell pellet was then suspended in chilled cell lysis buffer (0.1 M Tris–HCl, 0.5% Triton X-100, protease inhibitor cocktail) and sonicated on ice for 10–15 s. The homogenate was kept on ice for 30 min and then centrifuged at 13 000 r.p.m. for 30 min. The supernatant was used as cell lysate. The cell lysates were stored at −80°C. Protein concentration of the cell lysates was determined using Bio-Rad protein assay reagents.
Protein lysates from MCF-7 and T47D cells were subjected to sodium dodecyl sulphate–polyacrylamide gel electrophoresis (SDS–PAGE) and immunoblotted for different proteins. […] Immunoreactive bands were visualised using the enhanced chemiluminescence detection reagents and analysis system (Amersham Bioscences) according to the manufacturer's instructions and quantified by densitometry using ImageQuant software version 5.
Figure 4 Western immunoblotting analysis of whole-cell lysates of treated MCF-7 cells for the expression of ER-α. […] Numbers below the blot show fold increase in expression of the protein as analysed by ImageQuant densitometry analysis. […]

[3] = tested on: MCF-7 tumour xenografts; assay: In vivo antitumour study, established MCF-7 tumour xenografts; settings: for Reduction in mean tumour volume compared with vehicle control / Reduction in mean tumour volume compared with the ATRA group (10 mg kg^−1 day^−1): 6 weeks; for Antitumour effect relative to ATRA / 4-HPR (33.0 μmol kg^−1 day^−1), in words: VN/14-1 16.5 μmol kg^−1 day^−1, VN/66-1 66.0 μmol kg^−1 day^−1
Experimental: All the animal studies were performed according to the guidelines and approval of the Animal Care Committee of the University of Maryland, School of Medicine. Ovariectomised female athymic nude 4–6-week-old mice were used. […] Ovariectomised mice were then inoculated with MCF-7 cells (2 × 10^6 cells in Matrigel per tumour growth site) subcutaneously (s.c.) on the right and left flank. Tumour volumes were measured weekly with calipers. […] Retinoic acid metabolism blocking agents were formulated in 0.3% HPC (hydroxy propyl cellulose). […] Compounds were injected continuously for three days with a drug holiday of one day after every 3 days of treatment. Twice per week, the mice were weighed and tumours were measured using a caliper. Tumour volume was calculated according to the formula 4/3πr1^2r2 (r1<r2). The tumour treatment study was continued for 6 weeks. At the end of 6 weeks, mice were killed and blood plasma, as well as tumours, were collected, weighed and stored at −80°C until analysis.
Female ovariectomised nude mice bearing established MCF-7 tumour xenografts (200–300 mm^3) were grouped so that the mean tumour volume was similar for each group. […] Tumour sizes were measured twice a week after the start of treatment.
Ovariectomised female athymic nude 4–6-week-old mice were used. Oestrogen pellets (1.7 mg per pellet, 90 day release obtained from Innovative Research of America) were implanted in the mice using a trochar to facilitate tumour growth. Mice were then inoculated with MCF-7 cells (2 × 10^6 cells in Matrigel per tumour growth site) s.c. on the right and left flank. Tumours were allowed to grow for about 4–5 weeks till they were of measurable size (200–300 mm^3). The mice were then grouped as control and treatment groups. Twice every week the mice were weighed and tumours were measured using a caliper. Tumour volume was calculated according to the formula 4/3πr1^2r2 (r1<r2). The tumour treatment study was continued for 6 weeks. […] Mice were weighed twice every week during the 6-week antitumour study.

| Compound | EC50 [1] [µM] | Increase in expression of ER-α [2] | Reduction in mean tumour volume compared with vehicle control ([3]; 16.5 μmol kg^−1 day^−1 s.c.) [%] | Reduction in mean tumour volume compared with the ATRA group (10 mg kg^−1 day^−1) ([3]; 33.0 μmol kg^−1 day^−1 s.c.) [%] | Reduction in mean tumour volume compared with vehicle control ([3]; 33.0 μmol kg^−1 day^−1 s.c.) [%] | Reduction in mean final tumour weight compared with mice receiving vehicle alone ([3]; 66.0 μmol kg^−1 day^−1) [%] | Reduction in mean tumour volume compared with the ATRA group (10 mg kg^−1 day^−1) ([3]; 66.0 μmol kg^−1 day^−1 s.c.) [%] | Reduction in mean tumour volume compared with vehicle control ([3]; 66.0 μmol kg^−1 day^−1 s.c.) [%] | Antitumour effect relative to ATRA / 4-HPR (33.0 μmol kg^−1 day^−1), in words [3] | Tumour regression in the antitumour efficacy studies ([3]; mouse, in vivo) |
| --- | --- | --- | --- | --- | --- | --- | --- | --- | --- | --- |
| CC1=C(/C=C/C(C)=C/C=C/C(C)=C/C(=O)O)C(C)(C)CCC1n1ccnc1 (centres unmarked) [VN/14-1] | 1 | from four- to six-fold | 66.5 | 45 | 79.4 | 92.6 | 75.61 | 92.6 | comparable with the antitumour effect of ATRA or 4-HPR | did not cause any tumour regressions |
| CC1=C(/C=C/C(C)=C/C=C/C(C)=C/C(=O)O)C(C)(C)CCC1 [ATRA, all-trans-retinoic acid, reference compound] |  | from two- to eight-fold |  |  |  |  |  |  |  |  |
| CC1=C(/C=C/C(C)=C/C=C/C(C)=C/C(=O)Nc2ccc(O)cc2)C(C)(C)CCC1n1ccnc1 (centres unmarked) [VN/66-1] | > 10 |  |  |  |  |  |  |  | not better than ATRA |  |
| CC1=C(/C=C/C(C)=C/C=C/C(C)=C\C(=O)Nc2ccc(O)cc2)C(C)(C)CCC1n1ccnc1 (centres unmarked) [VN/69-1] | > 10 |  |  |  |  |  |  |  |  |  |
